Results published in patent publication US20030036513A1, “Method for treating cancer” (priority 1999, published 2003).

Tests used:
[1] = system: H4 Rat Hepatoma cells; test: Stress-induced antioxidant upswing in H4 Rat Hepatoma cells after hydrogen peroxide; type: cell-based; details: 100 uM hydrogen peroxide for two hours, medium replaced; determined after 24 hours in culture
Procedure: To further exemplify the redox clamping properties of Mesna, stress was induced in H4 Rat Hepatoma cells by treatment with 100 uM hydrogen peroxide for two hours and then the medium was removed and replaced with an anti-cancer agent. The cellular viability, as well as glutathione and metallothionein levels were determined after 24 hours in culture. […] The inhibition of stress induced upswing in antioxidant levels is characteristic of redox clamping agents.
In all of the experiments associated with the investigation of Mesna as a redox clamping agent, as a stand-alone anticancer agent as well as a chemosensitizer, the cell culture medium used was Swim's S-77 medium containing 12 uM cystine, instead of conventional levels of this amino acid (i.e., 50 uM). All other components of the medium were maintained at conventional concentrations. […] The ability of cystine to supply cells with cysteine, which then function as a precursor amino acid for glutathione synthesis, is thought to be responsible for the abnormally high basal levels of glutathione in cultured tumor cell lines.

[2] = system: Human LNCaP cells; test: Two-step arsenic then Mesna treatment of human LNCaP cells: apoptosis and glutathione levels (FIG. 1); type: cell-based
Procedure: In one aspect, the present invention further provides a method of using a redox clamping agent as a chemosensitizer comprising contacting tumor cells with a specific class of cytotoxic agent for a period of time, preferably between 2 and 4 hours, and then washing the agent from the cells and administering the redox clamping agent. It is preferred that the redox clamping agent is Mesna. The cytotoxic or anti-cancer agents used in this design would be those such as arsenic, hydrogen peroxide and other anti-cancer agents that are known to induce a cytotoxic effect by interacting with, depleting or sequestering cellular thiols. During the two to four hour treatment these anti-cancer agents deplete cellular thiols and induce apoptotic mechanisms in the cells. However, the stress-response that is induced in the cells by these anti-cancer agents also up-regulates the production of antioxidants such as glutathione and metallothionein. These antioxidants function as potent inhibitors of apoptosis. If redox clamping agents are added after the apoptotic mechanisms are initiated, but prior to the antioxidant rebound, the redox clamping agents will function in two ways to enhance the cytotoxic effects of the anti-cancer agents. It is preferred that the redox clamping agent be Mesna, which is a thiol with low reducing potential. First, the redox clamping agents will permit the progression of apoptotic signals and the mechanisms required to mediate cell death. Secondly, the redox clamping agents will promote the apoptotic response by dramatically attenuating the antioxidant “rebound” that is associated in the inhibition of apoptosis. Redox clamping agents chemically interact with the anti-cancer agent or oppose aspects of the early stress-response that is induced by pure oxidants. Therefore, a two-step treatment protocol is required.
Human LNCaP cells, treated with 100 uM arsenic for 2 hours then washed and re-fed with normal medium, develop an elevation in cellular glutathione levels over a 24-hour period. Since exogenous antioxidants are known to be potent inhibitors of apoptotic mechanism, it is believed that internally-produced antioxidants such as glutathione function in a similar manner. […] Although Mesna increases apoptosis alone, the low concentrations of Mesna utilized in this two-step treatment protocol increased apoptosis minimally i.e., to 11 percent from a background of 3 to 5 percent in untreated cells.
(§1) In all of the experiments associated with the investigation of Mesna as a redox clamping agent, as a stand-alone anticancer agent as well as a chemosensitizer, the cell culture medium used was Swim's S-77 medium containing 12 uM cystine, instead of conventional levels of this amino acid (i.e., 50 uM). […]

[3] = system: human tumor cell lines; test: Growth inhibition of human tumor cell lines in culture; type: cell-based
Text: The present invention provides a method of treating lymphoma, ovarian cancer, colorectal cancer, or gastric cancer comprising administering an effective amount of Mesna to a patient with lymphoma, ovarian cancer, colorectal cancer or gastric cancer. Mesna inhibits the growth of several human tumor cell lines in culture, and there are no strict relationships between the histopathological origin of the cell lines and the sensitivity of the cell lines to Mesna. […] It is further preferred that the patient be administered Mesna for a seven to ten day period. The doses may be cycled. The actual dose will be dependent on the size, type and location of the tumor as well as the overall status of the patient. It is preferred that high concentrations of Mesna be administered intravenously to achieve clamping initially, with further administration of oral doses to maintain the clamped state. […] Cancer cell lines were growth inhibited when Mesna was administered on several consecutive days. Mesna has shown good activity in preventing the urotoxicity of oxazaphosphorine compound.
as §1

[4] = system: metastatic and/or relapsed tumors refractory to conventional therapy; test: Clinical study of oral Mesna as single agent in 14 patients with metastatic and/or relapsed tumors refractory to conventional therapy; type: in vivo, human
Procedure: From December 1996 to March 1998 a study was performed on 14 ambulatory patients with metastatic and/or relapsed tumors refractory to conventional therapy. Eligibility criteria included histologically-confirmed advanced cancer, patients age was greater than 18 years, with a life expectancy no less than two months. The patients had not undergone major surgery within 2 weeks, or radiotherapy and/or chemotherapy within one month of the study. […] Exclusion criteria included active uncontrolled infection, pregnancy, lactation and any other co-existing medical problems severe enough to prevent full compliance with the study. Objectively measurable disease in the patients was required. All patients gave informed written consent before treatment. 600 mg/m^2 of Mesna was given by oral route four times a day, masked in orange juice for 10 consecutive days. Cycles were repeated every 15 days. No simultaneous chemotherapy and or radiotherapy and no other supportive care was given. The main objective of the study was to determine the anti-tumoral activity and toxicity of Mesna for heavily and or refractory pretreated cancer patients. […] The patients were all previously treated with between two and four different chemotherapy regimens. Mesna was administered as a single agent to all of the patients in the study. The toxic effects of Mesna and number of nodes were assessed during the first cycle of Mesna administration. […] For colorectal cancer a greater than 50% reduction of nodular lesions metastasized to liver was registered, during the second schedule of therapy. For gastric cancer a greater than 50% reduction of a subcutaneous nodule was measured during the second course of Mesna treatment.

[5] = within a few minutes after administration; cited from earlier work
[6] = even in very high dose, i.e. 1000 mg/kg; cited from earlier work
[7] = system: cells; test: Chemosensitizing of an anti-cancer agent by a co-administered redox clamping agent (FIG. 2); type: cell-based
Text: The present invention further provides a method of reducing the effective dose of an anti-cancer agent necessary to be effective against cancer comprising administering a redox clamping agent in conjunction with an anti-cancer agent. It is preferred that the redox clamping agent is Mesna or DMSA. Redox clamping agents have the ability to maintain cells in a selected redox state. […] Redox clamping agents are useful in enhancing the therapeutic activity of chemotherapeutic agents such as butyrate that are dependent upon the redox state of the cell. Redox clamping agents are further useful in controlling hyperproliferation of cells and conditions associated with abnormal fluctuations in the redox state of cells. In one aspect, this invention provides a method of treating cancerous tumors comprising administering an effective dose of an anti-cancer agent in conjunction with a redox clamping agent, wherein the redox clamping agent acts as a chemoenhancer or a chemosensitizer. […] The administration of Mesna in conjunction with an anti-cancer agent may be as separate compounds or in a composition formulated and titrated to a dose and in a concentration that would achieve the optimal therapeutic dose of the anti-cancer agent providing a higher tumor cell kill with a lower dose of the anti-cancer agent than the typical therapeutic dose administered to a patient. […]

[8] = arsenic treated cells washed and incubated in medium containing 100 uM Mesna

O=C(O)[C@@H](S)[C@@H](S)C(=O)O [DMSA]
effect on stress-induced upswings in antioxidant levels (glutathione, metallothionein) [1]: oppose stress-induced upswings in antioxidant levels

[AsH3] [arsenic]
apoptosis of the cells ([2]; 100 uM arsenic for 2 hours, then washed and re-fed with normal medium, 24-hour period): 28%

O=S(=O)([O-])CCS.[Na+] [Mesna, Sodium-2-mercaptoethane sulphonate]
elevation in glutathione levels [2, 8]: dramatically diminished
fraction of apoptotic cells compared to arsenic alone [2, 8]: increased more than two-fold
apoptosis with Mesna alone ([2]; low concentration of Mesna as used in the two-step protocol, background 3 to 5 percent in untreated cells): 11%
effect on stress-induced upswings in antioxidant levels (glutathione, metallothionein) [1]: oppose stress-induced upswings in antioxidant levels
incorporation of 3H-thymidine, proline and uridine [3]: inhibited incorporation
growth of human tumor cell lines in culture ([3]; lymphoma, ovarian cancer, colorectal cancer, gastric cancer lines, drug administered on several consecutive days): inhibits growth of several human tumor cell lines
reduction of nodular lesions metastasized to liver ([4]; colorectal cancer patient, 600 mg/m^2 oral four times a day, second schedule of therapy): greater than 50%
reduction of a subcutaneous nodule ([4]; gastric cancer patient, 600 mg/m^2 oral four times a day, second course of treatment): greater than 50%
objective responses ([4]; patients with lung cancer, soft tissue sarcoma, skin metastases of unknown origin, bladder cancer, melanoma and cancer of the cervix): No objective responses were achieved
clinical response in ovarian cancer patients ([4]; two patients, 600 mg/m^2 oral four times a day for 10 days, cycles every 15 days, second and third course respectively): reduced ascites and pain
administered dose transformed into Mesna disulphide [5]: more than 90%
pharmacological and toxicological behaviour [6]: relatively inert substance

CCCC(=O)O [Butyrate]
concentration at which apoptosis is induced ([7]; butyrate alone): greater than 3 mM
concentration giving an effective kill ([7]; in the presence of a redox clamping agent): ≥ 0.5 mM
